Source: patent US10227331B2 (priority 2015, dated 2019)

Columns and labels:
[1] = tested on: P. aeruginosa expressing IMP-1, efflux+ (MB9798); assay type: cell-based, Pseudomonas aeruginosa; conditions: for P. aeruginosa expressing IMP-1, efflux+ (MB9798) MITC95: imipenem at 2 μg/mL, in the presence of a class A, C, D serine β-lactamase inhibitor closely related to relebactam; for Efflux ratio: ratio MITC95 PA_9798/MITC95 PA_9799
From the text: (§1) The strain background is Pseudomonas aeruginosa PAO1.

NDM-1 = NDM-1 (Klebsiella pneumoniae, UniProt C7C422); assay: biochemical; assay type: biochemical; conditions: CCF2-FA substrate, 2 hours at 25° C; read-out: NDM-1 IC50
Experimental: (§2) Enzyme Activity: Determination of IC50
(§3) The Class B enzyme activities were measured in the presence of the test inhibitor in a fluorescence assay against a commercially available substrate consisting of a cephalosporin core linking 7-hydroxycoumarin to fluorescein (CCF2-FA). […] In a 384-well microplate, the test inhibitor was incubated with the metallo-β-lactamase enzyme and the substrate for 2 hours at 25° C. […] The IC50 value was determined from semi-logarithmic plots of enzyme inhibition versus inhibitor concentration, with a curve generated using a 4-parameter fit.

IMP-1 = IMP-1 (Serratia marcescens, UniProt P52699); assay: biochemical; assay type: biochemical; conditions: CCF2-FA substrate, 2 hours at 25° C; read-out: IMP-1 IC50
Experimental: as §2, §3

[2] = tested on: P. aeruginosa expressing IMP-1, efflux− (MB9799); assay: Efflux: concentration of MBL inhibitor which restores susceptibility to imipenem; assay type: cell-based, Pseudomonas aeruginosa; conditions: imipenem at 2 μg/mL, in the presence of a class A, C, D serine β-lactamase inhibitor closely related to relebactam
From the text: as §1

[3] = tested on: Serratia marcescens expressing IMP-1 (CL5741); assay type: cell-based; conditions: with imipenem 1 μg/ml; 95% inhibition of bacterial growth
Outline: (§4)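 Clinical strains grown overnight on blood agar, then diluted 1:100 in 1.1× CAMHB and exposed to test compound with imipenem at 1 μg/ml. Incubation was 22–24 h at 35° C; growth was read by absorbance to find the compound concentration restoring imipenem susceptibility.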

[4] = tested on: Escherichia coli expressing NDM-1 (CLB30005, CLB30016); assay type: cell-based; conditions: with imipenem 1 μg/ml; 95% inhibition of bacterial growth
Outline: as §4

[5] = tested on: Klebsiella pneumoniae expressing VIM-1 (IHMA599644); assay type: cell-based; conditions: with imipenem 1 μg/ml; 95% inhibition of bacterial growth
Outline: as §4

VIM-1 = VIM-1 (Pseudomonas aeruginosa (strain ATCC 15692 / DSM 22644 / CIP 104116 / JCM 14847 / LMG 12228 / 1C / PRS 101 / PAO1), UniProt A0A0F7KYQ8); assay: biochemical; conditions: CCF2-FA substrate, 2 hours at 25° C
Outline: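 Fluorescence assay of metallo-β-lactamase activity using CCF2-FA, a cephalosporin-linked 7-hydroxycoumarin–fluorescein substrate. Inhibitor, enzyme and substrate were incubated together for 2 hours at 25° C. IC50 came from a 4-parameter fit of inhibition versus inhibitor concentration.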

Sequence of IMP-1 (P52699 whole entry, looked up, species assumed): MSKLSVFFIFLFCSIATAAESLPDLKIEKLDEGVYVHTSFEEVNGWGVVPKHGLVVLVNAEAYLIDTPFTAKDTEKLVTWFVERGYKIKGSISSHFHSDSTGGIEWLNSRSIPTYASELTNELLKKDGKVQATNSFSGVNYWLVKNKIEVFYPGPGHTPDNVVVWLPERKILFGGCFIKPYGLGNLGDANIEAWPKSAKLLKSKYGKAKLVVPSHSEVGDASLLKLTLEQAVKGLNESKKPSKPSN
Sequence of NDM-1 (C7C422 whole entry, looked up, species assumed): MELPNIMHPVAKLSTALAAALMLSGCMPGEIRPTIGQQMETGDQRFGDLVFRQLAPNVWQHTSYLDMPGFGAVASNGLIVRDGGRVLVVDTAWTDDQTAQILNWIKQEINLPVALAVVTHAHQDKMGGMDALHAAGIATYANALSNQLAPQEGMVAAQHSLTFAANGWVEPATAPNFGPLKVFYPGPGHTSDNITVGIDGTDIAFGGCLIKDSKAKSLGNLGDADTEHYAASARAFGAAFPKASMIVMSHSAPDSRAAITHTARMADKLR

SMILES | P. aeruginosa expressing IMP-1, efflux+ (MB9798) MITC95 [1] | Efflux ratio [1] | IC50 (NDM-1) | IC50 (IMP-1) | P. aeruginosa expressing IMP-1, efflux− (MB9799) MITC95 [2] | Serratia marcescens expressing IMP-1 (CL5741) MITC95 [3] | Escherichia coli expressing NDM-1 (CLB30016) MITC95 [4] | Klebsiella pneumoniae expressing VIM-1 (IHMA599644) MITC95 [5] | IC50 (VIM-1)
Cc1ccc(-c2ccc(S(=O)(=O)C3CNC3)c(S(N)(=O)=O)c2-c2nn[nH]n2)c2nc(N)[nH]c12 [Example 15, 3-(2-Amino-7-methyl-1H-benzo[d]imidazol-4-yl)-6-(azetidin-3-ylsulfonyl)-2-(2H-tetrazol-5-yl)benzenesulfonamide] | 0.3906 µM | 1.00 | 0.0897 nM | 0.613 nM | 0.3906 µM | 0.3906 µM | 0.3906 µM | 0.7813 µM | 0.206 nM
NS(=O)(=O)c1c(S(=O)(=O)C2CNC2)ccc(-c2cnc3cc[nH]c3c2)c1-c1nn[nH]n1 [Example 16, 6-(Azetidin-3-ylsulfonyl)-3-(1H-pyrrolo[3,2-b]pyridin-6-yl)-2-(2H-tetrazol-5-yl)benzenesulfonamide] | 6.25 µM | 4.00 | 0.49 nM | 2.37 nM | 1.563 µM | 0.7813 µM | 0.3906 µM | 3.125 µM | 0.653 nM
Nc1ccc2ncc(-c3ccc(S(=O)(=O)C4CNC4)c(S(N)(=O)=O)c3-c3nn[nH]n3)n2n1 [Example 17, 3-(6-Aminoimidazo[1,2-b]pyridazin-3-yl)-6-(azetidin-3-ylsulfonyl)-2-(2H-tetrazol-5-yl)benzenesulfonamide] | 3.125 µM | 2.00 | 0.207 nM | 0.959 nM | 1.563 µM | 3.125 µM | 3.125 µM | 6.25 µM | 0.707 nM
NCCS(=O)(=O)c1ccc(-c2cccc3c2nc(N)n3CC(F)(F)F)c(-c2nn[nH]n2)c1S(N)(=O)=O [Example 18, 3-(2-Amino-1-(2,2,2-trifluoroethyl)-1H-benzo[d]imidazol-4-yl)-6-((2-aminoethyl)sulfonyl)-2-(2H-tetrazol-5-yl)benzenesulfonamide] | 3.125 µM | 2.00 | 0.442 nM | 0.227 nM | 1.563 µM | 3.125 µM | 1.563 µM | 3.125 µM | 0.361 nM
Cn1c(N)nc2cccc(-c3ccc(S(=O)(=O)C4CNC4)c(S(N)(=O)=O)c3-c3nn[nH]n3)c21 [Example 19, 3-(2-Amino-1-methyl-1H-benzo[d]imidazol-7-yl)-6-(azetidin-3-ylsulfonyl)-2-(2H-tetrazol-5-yl)benzenesulfonamide] | 6.25 µM | 4.00 | 0.108 nM | 2.5 nM | 1.563 µM | 1.563 µM | 0.7813 µM | 1.563 µM | 0.153 nM
Nc1n[nH]c2cc(-c3ccc(S(=O)(=O)C4CNC4)c(S(N)(=O)=O)c3-c3nn[nH]n3)ccc12 [Example 20] | 3.125 µM | 2.00 | 0.291 nM | 1.19 nM | 1.563 µM | 1.563 µM | 3.125 µM | 3.125 µM | 0.168 nM
Nc1n[nH]c2c(-c3ccc(S(=O)(=O)C4CNC4)c(S(N)(=O)=O)c3-c3nn[nH]n3)cccc12 [Example 21, 3-(3-amino-1H-indazol-7-yl)-6-(azetidin-3-ylsulfonyl)-2-(2H-tetrazol-5-yl)benzenesulfonamide] | 1.563 µM | 1.00 | 0.15 nM | 0.639 nM | 1.563 µM | 3.125 µM | 1.563 µM | 3.125 µM | 0.45 nM
Cn1c(N)nc2c(-c3ccc(S(=O)(=O)C4CNC4)c(S(N)(=O)=O)c3-c3nn[nH]n3)cccc21 [Example 22, 3-(2-amino-1-methyl-1H-benzo[d]imidazol-4-yl)-6-(azetidin-3-ylsulfonyl)-2-(2H-tetrazol-5-yl)benzenesulfonamide] | 1.563 µM | 2.00 | 0.164 nM | 0.432 nM | 0.7813 µM | 0.7813 µM | 0.3906 µM | 1.563 µM | 0.213 nM
Cc1ccc(-c2ccc(S(=O)(=O)CCN)c(S(N)(=O)=O)c2-c2nn[nH]n2)c2nc(N)[nH]c12 [Example 23, 3-(2-amino-7-methyl-1H-benzo[d]imidazol-4-yl)-6-((2-aminoethyl)sulfonyl)-2-(2H-tetrazol-5-yl)benzenesulfonamide] | 0.7813 µM | 2.00 | 0.123 nM | 0.352 nM | 0.3906 µM | 0.7813 µM | 0.3906 µM | 0.7813 µM | 0.0986 nM
Nc1ccc(-c2ccc(S(=O)(=O)C3CCNCC3)c(S(N)(=O)=O)c2-c2nn[nH]n2)cn1 [Example 24, 3-(6-aminopyridin-3-yl)-6-(piperidin-4-ylsulfonyl)-2-(2H-tetrazol-5-yl)benzenesulfonamide] | 3.125 µM | 2.00 | 0.382 nM | 0.528 nM | 1.563 µM | 3.125 µM | 3.125 µM | 3.125 µM | 0.218 nM
Nc1ccc(-c2ccc(S(=O)(=O)C3CNC3)c(S(N)(=O)=O)c2-c2nn[nH]n2)cn1 [Example 25, 3-(6-aminopyridin-3-yl)-6-(azetidin-3-ylsulfonyl)-2-(2H-tetrazol-5-yl)benzenesulfonamide] | 2.302 µM | 2.18 | 0.532 nM | 0.862 nM | 1.058 µM | 0.6719 µM | 0.5156 µM | 2.135 µM | 0.441 nM
Nc1nc2cccc(-c3ccc(S(=O)(=O)C4CNC4)c(S(N)(=O)=O)c3-c3nn[nH]n3)c2s1 [Example 26, 3-(2-aminobenzo[d]thiazol-7-yl)-6-(azetidin-3-ylsulfonyl)-2-(2H-tetrazol-5-yl)benzenesulfonamide] | 3.125 µM | 2.00 | 0.0286 nM | 0.66 nM | 1.563 µM | 3.125 µM | 1.563 µM | 3.125 µM | 0.16 nM
Nc1ccc2c(-c3ccc(S(=O)(=O)C4CNC4)c(S(N)(=O)=O)c3-c3nnn[nH]3)ccnc2n1 [Example 27, 3-(7-amino-1,8-naphthyridin-4-yl)-6-(azetidin-3-ylsulfonyl)-2-(1H-tetrazol-5-yl)benzenesulfonamide] | 6.25 µM | 4.00 | 0.185 nM | 1.75 nM | 1.563 µM | 3.125 µM | 6.25 µM | 3.125 µM | 0.33 nM
